Results from ChEMBL document CHEMBL5375954, “Discovery and Evaluation of C6-Substituted Pyrazolopyrimidine-Based Bisphosphonate Inhibitors of the Human Geranylgeranyl Pyrophosphate Synthase and Evaluation of Their Antitumor Efficacy in Multiple Myeloma, Pancreatic Ductal Adenocarcinoma, and Colorectal Cancer” (J Med Chem, 2023).
Active and inactive are the calls of the source. The calls are words filed in the database; no cut-off is given here.

Experiments:
MIA PaCa-2 [1] = experiment: Antitumor activity against human MIA PaCa-2 cells xenografted in NSG mouse assessed as improvement in animal survival rate at 3 mg/kg, ip administered 3 times a week for 26 days and measured 60 days post last dose; format: functional, organism-based; conditions: time 86.0 day
[2] = biological target: T1, Farnesyl pyrophosphate synthase (Homo sapiens) (UniProt P14324); experiment: Inhibition of N-terminally His6-tagged recombinant human FPPS expressed in Escherichia coli BL21(DE3) cells using […] and [14C]IPP as substrate at 10 uM preincubated for 10 mins followed by substrate addition by scintillation counting analysis relative to control
T1 sequence (whole entry): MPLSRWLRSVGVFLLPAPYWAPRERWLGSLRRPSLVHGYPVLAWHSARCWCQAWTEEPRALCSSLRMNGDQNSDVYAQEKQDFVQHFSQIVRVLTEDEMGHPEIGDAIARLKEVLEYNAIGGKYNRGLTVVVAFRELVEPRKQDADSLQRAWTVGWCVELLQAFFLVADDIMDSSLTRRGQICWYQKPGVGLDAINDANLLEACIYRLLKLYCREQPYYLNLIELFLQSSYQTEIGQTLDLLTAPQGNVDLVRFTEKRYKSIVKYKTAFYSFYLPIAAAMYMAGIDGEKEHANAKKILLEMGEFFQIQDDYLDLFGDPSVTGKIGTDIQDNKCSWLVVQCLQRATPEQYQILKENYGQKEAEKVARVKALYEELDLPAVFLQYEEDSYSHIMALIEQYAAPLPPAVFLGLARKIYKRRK

[3] = Hepatotoxicity in male NSG mouse xenografted with human RPMI-8226 cells assessed as eosinophilic degeneration at 3 mg/kg, ip administered 3 times a week for 26 days and measured 48 hrs post last dose by H and E staining based assay; format: toxicity, organism-based; conditions: in vivo, 672 h, time 28 day
[4] = Hepatotoxicity in female NSG mouse xenografted with human RPMI-8226 cells assessed as serum ALT level at 3 mg/kg, ip administered 3 times a week for 26 days and measured 48 hrs post last dose (reference value: 30 to 98 IU/L); format: toxicity, organism-based; conditions: in vivo, 672 h, time 28 day
[5] = Metabolic stability in Sprague-Dawley rat liver microsomes assessed as compound remaining incubated for 45 mins in absence of NADPH by LC-MS/MS analysis; format: ADME, Microsome; conditions: 0.75 h
[6] = Metabolic stability in Beagle dog liver microsomes assessed as compound remaining incubated for 45 mins in absence of NADPH by LC-MS/MS analysis; format: ADME, Canis lupus familiaris, Microsome; conditions: 0.75 h
HCT-116 [7] = experiment: Induction of apoptosis in human HCT-116 cells assessed as early apoptotic cells at 1 uM incubated for 72 hrs in presence of geranylgeraniol by APC-Annexin-V/7-AAD staining based flow cytometry (reference value: 1.16%); format: functional
[8] = Selectivity index, ratio of EC50 for human MIA PaCa-2 cells to EC50 for human RPMI-8226 cells; format: functional
[9] = Plasma clearance in Sprague-Dawley rat at 3 mg/kg, iv measured for 24 hrs by LC-MS/MS analysis; format: ADME, organism-based
[10] = Hepatotoxicity in female NSG mouse xenografted with human RPMI-8226 cells assessed as vasculitis or perivasculitis at 3 mg/kg, ip administered 3 times a week for 26 days and measured 48 hrs post last dose by H and E staining based assay; format: toxicity, organism-based; conditions: in vivo, 672 h, time 28 day
[11] = Volume of distribution in Sprague-Dawley rat at 3 mg/kg, iv measured for 24 hrs by LC-MS/MS analysis; format: ADME, organism-based; conditions: in vivo
[12] = Cytotoxicity against Normal human bronchial epithelial cells assessed as inhibition of cell growth at 10 uM incubated for 72 hrs by MTS assay relative to control; format: toxicity, cell-based
MIA PaCa-2 [13] = experiment: Induction of apoptosis in human MIA PaCa-2 cells assessed as early apoptotic cells at 1 uM incubated for 72 hrs by APC-Annexin-V/7-AAD staining based flow cytometry (reference value: 1.26%); format: functional
[14] = AUC(0 to infinity) in Sprague-Dawley rat at 3 mg/kg, iv measured for 24 hrs by LC-MS/MS analysis; format: ADME, organism-based; parameters: dose 3 mg/kg, time 24 hrs, route iv; conditions: in vivo
[15] = Cytotoxicity against human IMR-90 cells assessed as inhibition of cell growth at 360 nM incubated for 72 hrs by MTS assay relative to control; format: toxicity, cell-based
[16] = Toxicity in NSG mouse xenografted with human MIA PaCa-2 cells assessed as inflammation at site of injection at 3 mg/kg, ip administered 3 times a week for 26 days and measured daily; format: organism-based; conditions: in vivo, time 26 day
[17] = Hepatotoxicity in male NSG mouse xenografted with human RPMI-8226 cells assessed as foci of bile ductular/oval cell proliferation at 3 mg/kg, ip administered 3 times a week for 26 days and measured 48 hrs post last dose by H and E staining based assay; format: toxicity, organism-based, Bile duct; conditions: in vivo, 672 h, time 28 day
[18] = Toxicity in NSG mouse xenografted with human MIA PaCa-2 cells assessed as reduction in mobility at 3 mg/kg, ip administered 3 times a week for 26 days and measured daily; format: organism-based; conditions: in vivo, time 26 day
HCT-116 [19] = experiment: Induction of apoptosis in human HCT-116 cells at 1 uM incubated for 72 hrs by APC-Annexin-V/7-AAD staining based flow cytometry relative to control; format: functional
[20] = Hepatotoxicity in male NSG mouse xenografted with human RPMI-8226 cells assessed as foci of necrosis at 3 mg/kg, ip administered 3 times a week for 26 days and measured 48 hrs post last dose by H and E staining based assay; format: toxicity, organism-based; conditions: in vivo, 672 h, time 28 day
RPMI-8226 = experiment: Antitumor activity against human RPMI-8226 cells xenografted in NSG mouse assessed as reduction in tumor volume at 3 mg/kg, ip administered 3 times a week for 26 days; format: functional, organism-based; conditions: time 26.0 day
[21] = Toxicity in NSG mouse xenografted with human MIA PaCa-2 cells assessed as weight loss at 3 mg/kg, ip administered 3 times a week for 26 days and measured daily; format: organism-based; conditions: in vivo, time 26 day
[22] = Cytotoxicity against wild type mouse normal ductal organoid [N(10128)] at 1 uM incubated for 72 hrs by CellTiter-Glo luminescence based analysis; format: toxicity, tissue-based
[23] = Toxicity in NSG mouse xenografted with human MIA PaCa-2 cells assessed as body weight gain at 3 mg/kg, ip administered 3 times a week for 26 days and measured daily; format: organism-based; conditions: in vivo, time 26 day
[24] = Hepatotoxicity in female NSG mouse xenografted with human RPMI-8226 cells assessed as foci of bile ductular/oval cell proliferation at 3 mg/kg, ip administered 3 times a week for 26 days and measured 48 hrs post last dose by H and E staining based assay; format: toxicity, organism-based, Bile duct; conditions: in vivo, 672 h, time 28 day
KMS-12-PE = experiment: Antiproliferative activity against human KMS-12-PE cells harboring wild type KRAS at 0.1 to 10000 nM incubated for 72 hrs by MTS assay; format: functional, cell-based; conditions: dose 0.1-10000 nM
[25] = biological target: T2, Ras-related protein Rap-1A (Homo sapiens) (UniProt P62834); experiment: Inhibition of RAP-1A prenylation in human HCT-116 cells incubated for 48 hrs by Western blot analysis; format: cell-based; conditions: dose 10-1000 nM
T2 sequence (whole entry): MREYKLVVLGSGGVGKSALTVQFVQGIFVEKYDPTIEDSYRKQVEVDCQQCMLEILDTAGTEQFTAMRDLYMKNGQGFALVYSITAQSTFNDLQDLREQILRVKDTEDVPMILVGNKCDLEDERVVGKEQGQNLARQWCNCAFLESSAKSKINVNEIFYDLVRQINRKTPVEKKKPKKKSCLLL

Cn1ncc2c(NC(P(=O)(O)O)P(=O)(O)O)nc(-c3cccc(C(=O)Nc4ccc(C(F)(F)F)cc4)c3)nc21
Activity (MIA PaCa-2 [1]): Active
inhibition [2]: < 10%
Activity [3]: Non-Toxic
Activity [4]: 59 IU/L
Stability [5]: 99.3%
Stability [6]: 81.7%
Activity (HCT-116 [7]): 1.54%
Ratio EC50 [8]: ~10
clearance [9]: 0.2 mL/min/kg
Activity [10]: Non-Toxic
Vd [11]: 0.055 L/kg
inhibition at 72 h, 10 µM [12]: 0%
Activity (MIA PaCa-2 [13]): 13.5%
AUC(0-inf) [14]: 156 µg·h/mL
inhibition at 72 h, 0.36 µM [15]: 0%
Activity [16]: Non-Toxic
Activity [17]: Non-Toxic
Activity [18]: Non-Toxic
Activity (HCT-116 [19]): ~50%
Activity [20]: Non-Toxic
Activity (RPMI-8226): Active
Activity [21]: Non-Toxic
Activity [22]: Non-Toxic
Activity [23]: Toxic
Activity [24]: Non-Toxic
Activity (KMS-12-PE): Active
inhibition [25]: Dose-Dependent Effect
